Laboratory results taken from patent US9932637B2, “Genetic polymorphisms associated with cardiovascular disorders and drug response, methods of detection and uses thereof” (CELERA CORPORATION, priority 2003, dated 2018).

Test system: patients with prior myocardial infarction (CARE study)
Experiment: CARE: association of SNPs with pravastatin treatment in cardiovascular events prevention (logistic regression, odds ratio pravastatin vs placebo by genotype; Table 8)
Format: in vivo, human
Conditions: for MI (Fatal/Nonfatal), n/total (%) / Nonfatal MI (Probable/Definite), n/total (%) / Nonfatal MI (def & prob), n/total (%) / Fatal/Nonfatal MI (def & prob), n/total (%) / Hosp. for Unstable Angina, n/total (%): MJD hCV16189421, All Patients; for MI (Fatal/Nonfatal), n/total (%) / Nonfatal MI (Probable/Definite), n/total (%) / Nonfatal MI (def & prob), n/total (%) / Fatal/Nonfatal MI (def & prob), n/total (%) / Hosp. for Unstable Angina, n/total (%) / Percutaneous Transluminal Coronary Angioplas, n/total (%) / Fatal/Nonfatal Cerebrovascular Disease, n/total (%): Prava arm; for Percutaneous Transluminal Coronary Angioplas, n/total (%): MMP27 hCV7492601, All Patients; for Total Coronary Heart Disease Events, n/total (%) / Fatal/Non-fatal Atherosclerotic CV Disease, n/total (%) / Hosp. for Cardiovascular Disease, n/total (%) / Total Cardiovascular Disease Events, n/total (%) / Prava vs. Placebo Odds Ratio, 0 Rare Alleles / Prava vs. Placebo Odds Ratio, 1 Rare Alleles / Prava vs. Placebo Odds Ratio, 2 Rare Alleles / Fatal Atherosclerotic Cardiovascular Disease, n/total (%) / Cardiovascular Mortality, n/total (%): All Patients; for Total Coronary Heart Disease Events, n/total (%) / Fatal/Non-fatal Atherosclerotic CV Disease, n/total (%) / Hosp. for Cardiovascular Disease, n/total (%) / Total Cardiovascular Disease Events, n/total (%) / Fatal Atherosclerotic Cardiovascular Disease, n/total (%) / Cardiovascular Mortality, n/total (%): Prava; for Fatal/Nonfatal Cerebrovascular Disease, n/total (%): NID2 hCV15876071, All Patients
From the text: In order to identify genetic markers associated with acute coronary events (e.g. MI, stroke, unstable angina, congestive heart failure, etc.) or response to statin treatment for the prevention of coronary events, samples from the Cholesterol and Recurrent Events (CARE) study (a randomized multicentral double-blinded trial on secondary prevention of acute coronary events with pravastatin) (Sacks et al., 1991, Am. J. Cardiol. 68: 1436-1446) were genotyped. A well-documented myocardial infarction (MI) was one of the enrollment criteria for entry into the CARE study. Patients were enrolled in the CARE trial from 80 participating study centers. […] Patients were randomized to receive either 40 mg of pravastatin once daily or a matching placebo. The primary endpoint of the trial was death from coronary heart disease and the median duration of follow-up was 5.0 years (range, 4.0 to 6.2 years). […] Secondary endpoints of other related cardiovascular or metabolic disease events, and changes in clinical variables were also recorded in pravastatin-treated and placebo groups. All individuals included in the study had signed a written informed consent form and the study protocol was approved by the respective Institutional Review Boards (IRBs).
For genotyping SNPs in CARE patient samples, DNA was extracted from blood samples using conventional DNA extraction methods such as the QIA-amp kit from Qiagen. Genotypes were obtained on an ABI PRISM® 7900HT Sequence Detection PCR system (Applied Biosystems, Foster City, Calif.) by kinetic allele-specific PCR, similar to the method described by Germer et al. (Germer S., Holland M. J., Higuchi R. 2000, Genome Res. 10: 258-266).
Statistical analysis for association of SNPs with pravastatin treatment in cardiovascular events prevention (Table 8) was carried out using an overall logistic regression model that included an intercept, a parameter for the effect of a genotype containing two rare alleles versus a genotype containing no rare alleles, a parameter for the effect of a genotype containing one rare allele versus a genotype containing no rare alleles, a parameter for the effect of use of pravastatin versus the use of placebo, and parameters for the interaction effects between SNP genotypes and pravastatin use. The test of the overall model is a chi-square test with two degrees of freedom for analyses containing all three genotypes, and one degree of freedom for analyses containing two genotypes.
Effect sizes were estimated through odds ratios (pravastatin group versus placebo) for carriers of each genotype (groups of 0, 1, and 2 minor allele carriers). The effect was considered to be significant if p-value for testing whether any of the interactions between SNP genotypes and pravastatin use were <0.05. […] Odds ratios less than one indicate that the specific SNP allele has a protective effect and odds ratios greater than one indicate that the specific SNP allele has an adverse effect.

[1] = MTRR hCV7580070, 2 Rare Alleles, n/total 2/22
[2] = MTRR hCV7580070, 2 Rare Alleles, n/total 5/22
[3] = MTRR hCV7580070, Fatal/Non-fatal Atherosclerotic CV Disease
[4] = MTRR hCV7580070, Hosp. for Cardiovascular Disease
[5] = MTRR hCV7580070, Total Cardiovascular Disease Events
[6] = MTRR hCV7580070, Total Coronary Heart Disease Events
[7] = NPC1 hCV7490135, 1 Rare Allele, n/total 26/742
[8] = NPC1 hCV7490135, 2 Rare Alleles, n/total 3/324

Which “MI (Fatal/Nonfatal), n/total (%)” value (0 Rare Alleles) does the source give for CC[C@H](C)C(=O)O[C@H]1C[C@H](O)C=C2C=C[C@H](C)[C@H](CC[C@@H](O)C[C@@H](O)CC(=O)O)[C@H]21 [pravastatin] here?
Its value is “(8.6%)”.

And the “Nonfatal MI (Probable/Definite), n/total (%)” value (0 Rare Alleles)?
Its value is “(8.0%)”.

And the “Nonfatal MI (def & prob), n/total (%)” value (0 Rare Alleles)?
The value was “(7.5%)”.

What about the “Fatal/Nonfatal MI (def & prob), n/total (%)” value (1 Rare Allele) of the same molecule?
Its value is “(11.9%)”.

And the “Hosp. for Unstable Angina, n/total (%)” value (1 Rare Allele)?
Its value is “(17.6%)”.

And the “MI (Fatal/Nonfatal), n/total (%)” value (1 Rare Allele)?
Its value is “(12.1%)”.

What about the “Nonfatal MI (Probable/Definite), n/total (%)” value (1 Rare Allele) of the same molecule?
The value was “(11.3%)”.

And the “Nonfatal MI (def & prob), n/total (%)” value (1 Rare Allele)?
Its value is “(11.2%)”.

What about the “Fatal/Nonfatal MI (def & prob), n/total (%)” value (2 Rare Alleles) of the same molecule?
The value was “(11.2%)”.

What about the “Hosp. for Unstable Angina, n/total (%)” value (2 Rare Alleles) of the same molecule?
Its value is “(10.1%)”.

What about the “MI (Fatal/Nonfatal), n/total (%)” value (2 Rare Alleles) of the same molecule?
The value was “(11.2%)”.

What about the “Nonfatal MI (Probable/Definite), n/total (%)” value (2 Rare Alleles) of the same molecule?
The value was “(11.2%)”.

And the “Nonfatal MI (def & prob), n/total (%)” value (2 Rare Alleles)?
The value was “(11.2%)”.

And the “Percutaneous Transluminal Coronary Angioplas, n/total (%)” value (0 Rare Alleles)?
The value was “(9.7%)”.

What about the “Percutaneous Transluminal Coronary Angioplas, n/total (%)” value (1 Rare Allele) of the same molecule?
Its value is “(9.1%)”.

What about the “Percutaneous Transluminal Coronary Angioplas, n/total (%)” value (2 Rare Alleles) of the same molecule?
Its value is “(8.2%)”.

What about the “Total Coronary Heart Disease Events, n/total (%)” value (MTRR hCV7580070, 0 Rare Alleles, n/total 338/1201) of the same molecule?
The value was “(28.1%)”.

What about the “Fatal/Non-fatal Atherosclerotic CV Disease, n/total (%)” value (MTRR hCV7580070, 0 Rare Alleles, n/total 390/1201) of the same molecule?
The value was “(32.5%)”.

What about the “Hosp. for Cardiovascular Disease, n/total (%)” value (MTRR hCV7580070, 0 Rare Alleles, n/total 466/1201) of the same molecule?
Its value is “(38.8%)”.

And the “Total Cardiovascular Disease Events, n/total (%)” value (MTRR hCV7580070, 0 Rare Alleles, n/total 480/1201)?
The value was “(40.0%)”.

And the “Total Coronary Heart Disease Events, n/total (%)” value (MTRR hCV7580070, 1 Rare Allele, n/total 98/284)?
The value was “(34.5%)”.

And the “Fatal/Non-fatal Atherosclerotic CV Disease, n/total (%)” value (MTRR hCV7580070, 1 Rare Allele, n/total 110/284)?
Its value is “(38.7%)”.

And the “Hosp. for Cardiovascular Disease, n/total (%)” value (MTRR hCV7580070, 1 Rare Allele, n/total 135/284)?
Its value is “(47.5%)”.

What about the “Total Cardiovascular Disease Events, n/total (%)” value (MTRR hCV7580070, 1 Rare Allele, n/total 137/284) of the same molecule?
Its value is “(48.2%)”.

And the “Fatal/Non-fatal Atherosclerotic CV Disease, n/total (%)” value [1]?
Its value is “(9.1%)”.

What about the “Total Coronary Heart Disease Events, n/total (%)” value [1] of the same molecule?
The value was “(9.1%)”.

What about the “Hosp. for Cardiovascular Disease, n/total (%)” value [2] of the same molecule?
Its value is “(22.7%)”.

And the “Total Cardiovascular Disease Events, n/total (%)” value [2]?
The value was “(22.7%)”.

What about the “Prava vs. Placebo Odds Ratio, 0 Rare Alleles” value [3] of the same molecule?
The value was 0.74.

And the “Prava vs. Placebo Odds Ratio, 1 Rare Alleles” value [3]?
Its value is 0.95.

What about the “Prava vs. Placebo Odds Ratio, 2 Rare Alleles” value [3] of the same molecule?
The value was 0.09.

And the “Prava vs. Placebo Odds Ratio, 0 Rare Alleles” value [4]?
Its value is 0.71.

What about the “Prava vs. Placebo Odds Ratio, 1 Rare Alleles” value [4] of the same molecule?
Its value is 1.04.

What about the “Prava vs. Placebo Odds Ratio, 2 Rare Alleles” value [4] of the same molecule?
Its value is 0.22.

And the “Prava vs. Placebo Odds Ratio, 0 Rare Alleles” value [5]?
Its value is 0.71.

And the “Prava vs. Placebo Odds Ratio, 1 Rare Alleles” value [5]?
The value was 1.01.

And the “Prava vs. Placebo Odds Ratio, 2 Rare Alleles” value [5]?
The value was 0.22.

What about the “Prava vs. Placebo Odds Ratio, 0 Rare Alleles” value [6] of the same molecule?
Its value is 0.73.

What about the “Prava vs. Placebo Odds Ratio, 1 Rare Alleles” value [6] of the same molecule?
Its value is 1.00.

And the “Prava vs. Placebo Odds Ratio, 2 Rare Alleles” value [6]?
The value was 0.12.

What about the “Fatal/Nonfatal Cerebrovascular Disease, n/total (%)” value (0 Rare Alleles) of the same molecule?
The value was “(5.7%)”.

And the “Fatal/Nonfatal Cerebrovascular Disease, n/total (%)” value (1 Rare Allele)?
The value was “(4.1%)”.

And the “Fatal/Nonfatal Cerebrovascular Disease, n/total (%)” value (2 Rare Alleles)?
The value was “(1.7%)”.

What about the “Fatal Atherosclerotic Cardiovascular Disease, n/total (%)” value (NPC1 hCV7490135, 0 Rare Alleles, n/total 25/437) of the same molecule?
The value was “(5.7%)”.

What about the “Cardiovascular Mortality, n/total (%)” value (NPC1 hCV7490135, 0 Rare Alleles, n/total 26/437) of the same molecule?
Its value is “(5.9%)”.

And the “Total Coronary Heart Disease Events, n/total (%)” value (NPC1 hCV7490135, 0 Rare Alleles, n/total 146/437)?
The value was “(33.4%)”.

What about the “Fatal/Non-fatal Atherosclerotic CV Disease, n/total (%)” value (NPC1 hCV7490135, 0 Rare Alleles, n/total 165/437) of the same molecule?
The value was “(37.8%)”.

And the “Hosp. for Cardiovascular Disease, n/total (%)” value (NPC1 hCV7490135, 0 Rare Alleles, n/total 194/437)?
Its value is “(44.4%)”.

And the “Total Cardiovascular Disease Events, n/total (%)” value (NPC1 hCV7490135, 0 Rare Alleles, n/total 202/437)?
The value was “(46.2%)”.

And the “Cardiovascular Mortality, n/total (%)” value [7]?
Its value is “(3.5%)”.

And the “Fatal Atherosclerotic Cardiovascular Disease, n/total (%)” value [7]?
Its value is “(3.5%)”.

And the “Total Coronary Heart Disease Events, n/total (%)” value (NPC1 hCV7490135, 1 Rare Allele, n/total 213/742)?
The value was “(28.7%)”.

And the “Fatal/Non-fatal Atherosclerotic CV Disease, n/total (%)” value (NPC1 hCV7490135, 1 Rare Allele, n/total 246/742)?
Its value is “(33.2%)”.

What about the “Hosp. for Cardiovascular Disease, n/total (%)” value (NPC1 hCV7490135, 1 Rare Allele, n/total 295/742) of the same molecule?
The value was “(39.8%)”.

And the “Total Cardiovascular Disease Events, n/total (%)” value (NPC1 hCV7490135, 1 Rare Allele, n/total 303/742)?
Its value is “(40.8%)”.

And the “Cardiovascular Mortality, n/total (%)” value [8]?
The value was “(0.9%)”.

And the “Fatal Atherosclerotic Cardiovascular Disease, n/total (%)” value [8]?
Its value is “(0.9%)”.

And the “Total Coronary Heart Disease Events, n/total (%)” value (NPC1 hCV7490135, 2 Rare Alleles, n/total 81/324)?
Its value is “(25.0%)”.
